In PMC10194883 (PLOS ONE, 2023):

Columns and labels:
Assay type in all cases: cell-based
[1] = tested on: SARS-CoV-2 pseudovirus Omicron (B.1.1529) into ACE2h cells
[2] = tested on: SARS-CoV-2 Delta (B.1.617.2) pseudovirus into ACE2h cells; experiment: microbe, parasite or virus in culture
[3] = tested on: ACE2 high expressing-HEK293T cells (ACE2h cells); details: 24 h, even at 100 μM
Method: For cytotoxicity assay, ACE2^h cells were seeded into 96-well plates at a density of 1×10^4 cells per well and then treated with different concentrations of OA (0.01, 0.1, 1, 10, 100 μM) for 24 h, then 10 μL of Cell Counting Kit (IV08-500, Invigentech, USA) solution was added to each well followed by 2 h of incubation. The relative cell viability was assessed by the detection of the absorbance at 450 nm using a microplate reader (Infinite F50, Thermo Fisher, China). The survival rate of ACE2^h cells was calculated as the following formula: Survival rate = [(OD Treated –OD Blank) / (OD Control−OD Blank)] × 100%.

O=C(O)C(=O)O [OA, Oxalic acid]
luciferase activity compared to the control [1]: significantly reduced | expression of green fluorescent protein in ACE2h cells [2]: significantly reduced | IC50 ([2]; Pseudovirus, read-out: IC50, inhibition of entry of Delta pseudovirus into ACE2h cells): 26 µM | cytotoxic effect (cell viability) [3]: no significant cytotoxic effect
